# Legend:
# [1] = background statement; cited from earlier work
# [2] = Solubility of PRASL in the adhesive matrix; assay type: physicochemical; conditions: acrylate adhesive matrix DuroTak 387-2287
# From the text: The selection of suitable adhesive matrices occurs based on the solubility of PRASL in the adhesive matrices. Suitable adhesive matrices for the present invention are those in which the solubility of PRASL is between 0.1 to 5%. Adhesive matrices, in which the solubility of PRASL is between 0.1 to 2%, have proven to be especially suitable.
# If the solubility of the adhesive matrix used for PRASL is larger than 2 to 5%, as e.g. in the case of the acrylate adhesive matrix, DuroTak 387-2287, the entire effective ingredient amount dissolves after film-formation and the advantages of the amorphous effective ingredient dispersion according to the present invention cannot be employed.
smiles,measurement,setting,value
"O=C1OCc2cc(NC(=O)[C@](O)(CC3(c4cc(C(F)(F)F)ccc4F)CC3)C(F)(F)F)ccc21 [PRASL, (R)-3-{1-[2-fluoro-5-(trifluoromethyl)-phenyl]-cyclopropyl}-2-hydroxy-N-(phthalid-5-yl)-2-(trifluoromethyl)-propanamide]",Daily dosage that activates pharmacological effects,[1],30 micrograms
same,Solubility of the adhesive matrix for PRASL,[2],2 to 5%
